Patent US11780934B2, “Use of inhibitors of ADAM12 as adjuvants in tumor therapies” (INSTITUT PASTEUR, priority 2016, dated 2023)
Entries after “also recorded” stand apart in the source; their conditions may differ.

System: ADAM12+ CAFs
Assay: Depletion of ADAM12+ CAFs by diphtheria toxin in M12-DTR mice bearing murine melanoma (MO5)
Assay type: in vivo, mouse
[1] = M12-DTR+DT vs tumors with normal stroma, melanoma

Substance: diphtheria toxin [DT]
- depletion of ADAM12+ CAFs (M12-DTR mice, DT ip starting at day 9 or 10 after melanoma cell inoculation): specifically depleted
- density of CD31+ vessels inside the tumors (M12-DTR+DT vs control (DTR negative) mice, melanoma, immunofluorescence, two or three weeks after inoculation): higher density
- tumor perfusion (positive area of Hoechst 33342 staining) (M12-DTR+DT vs control mice, melanoma, Hoechst 33342 iv): increased perfusion
- activation of CD31+ vessels (ICAM1+) (M12-DTR+DT vs control mice, melanoma, immunofluorescence): activated ICAM1+ phenotype
- tumor growth (M12-DTR+DT vs mice with normal tumor stroma, murine melanoma model): significantly delayed; also recorded: decrease in tumor growth
- frequency of CD3+ T cells in tumor [1]: significantly higher frequency; also recorded: higher T cells (CD3+) infiltration
- percentage of myeloid-derived suppressor cells (MDSC) and T-regulator cells (Tregs) [1]: remained unchanged
- ratio of M1/M2 macrophages [1]: increased ratio
- location of CD3+ T cells in tumor (M12-DTR+DT vs tumors with normal stroma, melanoma, histology): recruited to the core of the tumor
